Here are results for 17 molecules from patent publication US7622494B2, “Chemical compounds” (SmithKline Beecham Corporation, priority 2003, dated 2009).

The test system of the experiment is episomal HPV-16 DNA in W12-20850 cells. The experiment in a line: W-12 cellular assay (hybrid capture quantification of episomal HPV-16 DNA). The class given is cell-based, HPV16. The settings on record: read-out: W-12. The method, then:
Compounds of the current invention are believed useful in the treatment and/or prophylaxis of conditions and diseases associated with HPV infection. Activity mediated through HPV was determined using the following W-12 cellular assay.
The W12 cell line used contains HPV16 DNA and was derived from a low-grade cervical dysplasia tissue by Margaret Stanley and subsequently clonally selected by Paul Lambert (University of Wisconsin). One of these clones, W12-20850, contains 1000 copies of episomal HPV16 DNA and was used in the cell-based assay. W12-20850 cells were routinely cultured with a gamma-irradiated (6000 rads) feeder layer of 3T3 cells. Assays, however, were run in the absence of a 3T3 feeder layer. W12-20850 and 3T3 cells were routinely split when they were sub-confluent. W12-20850 were grown in W12 Medium which is constituted of 25% DMEM (Gibco BRL, Cat # 12430-047), 75% F12 Media (Gibco BRL, Cat # 11765-021) and 2.5% FBS. The additives include […] Adenine (Sigma, Cat # A-9795), […] Hydrocortisone (Calbiochem, Cat # 386698); 5.0 mg/ml Bovine Insulin (Sigma, Cat # I-1882), 8.4 ng/ml cholera toxin (Fluka, Cat # 26694) and 10 ng/ml EGF (Invitrogen, Cat # 13247-051). 3T3 cells were grown in DMEM containing 10% FBS. Cell lines were incubated at 37° C., in the presence of 5% CO2.
For the assay, W12-20850 cells were seeded into a 96 well plate-containing compound. Plates were incubated at 37° C. in the presence of 5% CO2, for four days. On the fourth day, cells were lysed and the amount of episomal. HPV-16 DNA was quantified using a non-radioactive hybrid capture technique with HPV-16 specific capture and detection probes. The percent inhibition relative to untreated control cells' was then determined.
The hybrid capture assay is run in a 96 well plate format. Hybridization plates (Nunc Maxisorb Cat # 450320) were coated with a mixture of capture probe and ReactiBind solution for at least 4 hours and then washed with 0.2×SSC, 0.05% Tween20 (SSCT) prior to blocking with […] of 0.2 N NaOH, 1% Igepal, 10 mg/ml hsDNA for 6-8 hours. The hybridization was carried out by mixing 27 μl of lysed cells with 45 μl of denatured detection probe in 6M guanidine isothiocyanate. To prevent evaporation, 50 μl of mineral oil was added to each well. The plate was then heated to 90° C. for 6.5 minutes and the hybridization continued at 42° C. overnight. Assay plates were washed 6 times with SSC/T. Anti-digoxigenin HRP-conjugated Ab (Boehringer Mannheim 1207733, 1:5000) was incubated in the wells for 30 min at room temperature and washed with PBS/0.05% Tween-20. SuperSignal LBA substrate (Pierce Cat # 37070) was added, and chemiluminescence was measured using Wallac 1420 Victor plate reader.

Setting [1] is: Human papillomavirus 16, W12-20850, 96 h.
[2] abbreviates: Human papillomavirus 16, 96 h, W12-20850 cells, four days incubation, episomal HPV-16 DNA by hybrid capture, inhibition relative to untreated control cells.

Where a name gives a salt, the structure may show the parent alone. Read-outs that look alike come from different tables or passages of the source.

With `c1ccc(CNC2CCCc3c2[nH]c2ccccc32)cc1` (centres unmarked) [Example 15, N-Benzyl-2,3,4,9-tetrahydrocarbazole-1-amine hydrochloride salt], the IC50 under setting [1] came out at 6.6 µM.

For `COc1ccc(CNC2CCCc3c2[nH]c2ccccc32)cc1` (centres unmarked) [Example 16, N-(4-Methoxybenzyl)-2,3,4,9-tetrahydro-1H-carbazol-1-amine hydrochloride salt], under setting [1], the IC50 amounted to 1.5 µM.

Regarding `c1ccc(CCNC2CCCc3c2[nH]c2ccccc32)cc1` (centres unmarked) [Example 17, N-(2-Phenylethyl)-2,3,4,9-tetrahydro-1H-carbazol-1-amine hydrochloride salt], the IC50 under setting [1] is 7.4 µM.

Regarding `C[C@@H](NC1CCCc2c1[nH]c1ccccc21)c1ccccc1` (stereo partly drawn) [Example 18, N-[(1R)-1-Phenylethyl]-2,3,4,9-tetrahydro-1H-carbazol-1-amine hydrochloride salt], the IC50 under setting [1] amounted to 12.3 µM.

Consider `c1ccc2c3c([nH]c2c1)C(NC1CCCCC1)CCC3` (centres unmarked) [Example 19, N-Cyclohexyl-2,3,4,9-tetrahydro-1H-carbazol-1-amine hydrochloride salt], for which the IC50 under setting [1] stood at 14.5 µM.

For the molecule `c1ccc2c(c1)CC(NC1CCCc3c1[nH]c1ccccc31)C2` (centres unmarked) [Example 20, N-(2.3-Dihydro-1H-inden-2-yl)-2,3,4,9-tetrahydro-1H-carbazol-1-amine hydrochloride salt], the IC50 under setting [2] came out at 3.3 µM.

With `CCCNC1CCCc2c1[nH]c1ccccc21` (centres unmarked) [Example 21, N-Propyl-2,3,4,9-tetrahydro-1H-carbazol-1-amine hydrochloride salt], the IC50 under setting [1] amounted to 40 µM.

For `COCCNC1CCCc2c1[nH]c1ccccc21` (centres unmarked) [Example 22, N-(2-Methoxyethyl)-2,3,4,9-tetrahydro-1H-carbazol-1-amine hydrochloride salt], the IC50 under setting [1] is 47 µM.

On to `OC[C@H](NC1CCCc2c1[nH]c1ccccc21)c1ccccc1` (stereo partly drawn) [Example 23, (2R)-2-Phenyl-2-(2,3,4,9-tetrahydro-1H-carbazol-1-ylamino)ethanol hydrochloride salt], for which the IC50 under setting [1] amounted to 30 µM.

For the molecule `C[C@@H](CCc1ccccc1)NC1CCCc2c1[nH]c1ccccc21` (stereo partly drawn) [Example 24, N-[(1S)-1-Methyl-3-Phenylpropyl]-2,3,4,9-tetrahydro-1H-carbazol-1-aminehydrochloride salt], under setting [2], the IC50 is 5.3 µM.

Consider `c1ccc2c3c([nH]c2c1)C(NCc1ccc2c(c1)OCO2)CCC3` (centres unmarked) [Example 25, N-(1.3-Benzodioxol-5-ylmethyl)-2,3,4,9-tetrahydro-1H-carbazol-1-amine hydrochloride salt], for which the IC50 under setting [2] was 1.5 µM.

Regarding `Brc1ccc2[nH]c3c(c2c1)CCCC3NCCc1ccccc1` (centres unmarked) [Example 26, 6-Bromo-N-(2-phenylethyl)-2,3,4,9-tetrahydro-1H-carbazol-1-amine hydrochloride salt], under setting [1], the IC50 came out at 0.41 µM.

`Brc1ccc2[nH]c3c(c2c1)CCC[C@H]3NC1Cc2ccccc2C1` [Example 27, (1R)-6-Bromo-N-(2,3-dihydro-1H-inden-2-yl)-2,3,4,9-tetrahydro-1H-carbazol-1-amine hydrochloride salt]: under setting [1], the IC50 turned out to be 0.057 µM.

Take `Brc1ccc2[nH]c3c(c2c1)CCC[C@@H]3NC1Cc2ccccc2C1` [Example 28, (1S)-6-Bromo-N-(2.3-dihydro-1H-inden-2-yl)-2,3,4,9-tetrahydro-1H-carbazol-1-amine hydrochloride salt]: under setting [2], the IC50 was determined as 3.7 µM.

In the case of `Brc1ccc2[nH]c3c(c2c1)CCCC3NCc1ccccc1` (centres unmarked) [Example 29, N-Benzyl-6-bromo-2,3,4,9-tetrahydro-1H-carbazol-1-amine hydrochloride salt], the IC50 under setting [1] was found to be 0.115 µM.

Consider `C[C@@H](NC1CCCc2c1[nH]c1ccc(Br)cc21)c1ccccc1` (stereo partly drawn) [Example 30, 6-Bromo-N-[(1R)-1-phenylethyl]-2,3,4,9-tetrahydro-1H-carbazol-1-amine hydrochloride salt], for which the IC50 under setting [1] is less than 0.2 µM.

Turning to `C[C@@H](N[C@@H]1CCCc2c1[nH]c1ccc(Br)cc21)c1ccccc1` [Example 31, (1R)-6-bromo-N-[(1R)-1-phenylethyl]-2,3,4,9-tetrahydro-1 H-carbazol-1-amine hydrochloride salt], under setting [1], the IC50 is 0.03 µM.
